According to US10501467B2, “Fused tetra or penta-cyclic dihydrodiazepinocarbazolones as PARP inhibitors” (BeiGene, Ltd., priority 2011, dated 2019):

Test system: PARP PARylation in HeLa cells
Test: PARylation assay in HeLa cells
Type: cell-based
Conditions: H2O2-provoked DNA damage

Row | Compound | EC50 (Homo sapiens) | EC50
1 | CN(C)CCn1c2c3c4c(cccc41)C(=O)NN=C3CCC2 [Compound 37, 10-(2-(dimethylamino)ethyl)-2,3,5,10-tetrahydro-[1,2]diazepino[3,4,5,6-def]carbazol-6(1H)-one] | 0.022 µM | 
2 | CN1CC2=NNC(=O)c3cccc4[nH]c(c2c34)C1 [Compound 44, 2-Methyl-2,3,4,9-tetrahydro-2,4,9,10-tetraazacyclohepta[def]fluoren-8(1H)-one] | 0.024 µM | 
3 | C[C@]12CCCN1CC1=NNC(=O)c3cc(F)cc4[nH]c2c1c34 [Compound 69] | 0.0006 µM | 
4 | O=C1NN=C2CN(C(=O)OCc3ccccc3)Cc3[nH]c4cccc1c4c32 [Compound 20, Benzyl 8-oxo-3,4,8,9-tetrahydro-2,4,9,10-tetraazacyclohepta[def]fluorene-2(1H)-carboxylate] | 0.0073 µM | 
5 | CC1(C)CCc2[nH]c3cccc4c3c2C1=NNC4=O [Compound 4, 3,3-dimethyl-2,3,5,10-tetrahydro-[1,2]diazepino[3,4,5,6-def]carbazol-6(1H)-one] | 0.0467 µM | 
6 | CC(C)C1CC2=NNC(=O)c3cccc4[nH]c(c2c34)C1 (stereo not drawn) [Compound 6, 2-isopropyl-2,3,5,10-tetrahydro-[1,2]diazepino[3,4,5,6-def]carbazol-6(1H)-one] | 0.0039 µM | 
7 | CC1(C)CC2=NNC(=O)c3cccc4c3c2c(n4CCO)C1 [Compound 67, 10-(2-hydroxyethyl)-2,2-dimethyl-2,3,5,10-tetrahydro-[1,2]diazepino[3,4,5,6-def]carbazol-6(1H)-one] | 0.247 µM | 
8 | CC1CC2=NNC(=O)c3cccc4[nH]c(c2c34)C1 (stereo not drawn) [Compound 3, 2-methyl-2,3,5,10-tetrahydro-[1,2]diazepino[3,4,5,6-def]carbazol-6(1H)-one] | 0.0046 µM | 
9 | CN(C)c1ccc(C2CC3=NNC(=O)c4cccc5[nH]c(c3c45)C2)cc1 (stereo not drawn) [Compound 13, 2-(4-(dimethylamino)phe-nyl)-2,3,5,10-tetrahydro-[1,2]diazepino[3,4,5,6-def]carbazol-6(1H)-one] | 0.0776 µM | 
10 | CN(C)CCn1c2c3c4c(cc(F)cc41)C(=O)NN=C3CN(C(=O)C1CC1)C2 [Compound 50, 2-(Cyclopropanecarbonyl)-4-(2-(dimethylamino)ethyl)-6-fluoro-2,3,4,9-tetrahydro-2,4,9,10-tetraazacyclohepta[def]fluoren-8(1H)-one] | 0.021 µM | 
11 | CC(C)(C)OC(=O)N[C@@H](Cc1ccccc1)C(=O)N1CC2=NNC(=O)c3cccc4[nH]c(c2c34)C1 [Compound 63, (S)-tert-butyl (1-oxo-1-(8-oxo-8,9-dihydro-2,4,9,10-tetraazacyclohepta[def]fluoren-2(1H,3H,4H)-yl)-3-phenylpropan-2-yl)carbamate] | 0.235 µM | 
12 | CN1N=C2CC(C)(C)Cc3c2c2c(cccc2n3C)C1=O [Compound 25, 2,2,5,10-tetramethyl-2,3,5,10-tetrahydro-[1,2]diazepino[3,4,5,6-def]carbazol-6(1H)-one] | > 1 µM | 
13 | 2-phenyl-2,3,5,10- tetrahydro- [1,2]diazepino[3,4, 5,6-def]carbazol- 6(1H)-one [Compound 5] |  | 0.0101 µM
14 | CC(C)(C)C(=O)N1CC2=NNC(=O)c3cccc4[nH]c(c2c34)C1 [Compound 51, 2-Pivaloyl-2,3,4,9-tetrahydro-2,4,9,10-tetraazacyclohepta[def]fluoren-8(1H)-one] | 0.0096 µM | 
15 | CN(C)CCN1CC2=NNC(=O)c3cc(F)cc4[nH]c(c2c34)C1 [Compound 61, 2-(2-(Dimethylamino)ethyl)-6-fluoro-2,3,4,9-tetrahydro-2,4,9,10-tetraazacyclohepta[def]fluoren-8(1H)-one] | 0.042 µM | 
16 | CCCN1CC2=NNC(=O)c3cccc4[nH]c(c2c34)C1 [Compound 56, 2-Propyl-2,3,4,9-tetrahydro-2,4,9,10-tetraazacyclohepta[def]fluoren-8(1H)-one] | 0.0064 µM | 
17 | O=C1NN=C2CN(C3CCCCC3)Cc3[nH]c4cccc1c4c32 [Compound 53, 2-Cyclohexyl-2,3,4,9-tetrahydro-2,4,9, 10-tetraazacyclohepta[def]fluoren-8(1H)-one] | 0.02 µM | 
18 | O=C1NN=C2CN(C(=O)OCc3ccccc3)Cc3[nH]c4cc(F)cc1c4c32 [Compound 21, Benzyl 6-fluoro-8-oxo-3,4,8,9-tetrahydro-2,4,9,10-tetraazacyclohepta[def]fluorene-2(1H)-carboxylate] | 0.014 µM | 
19 | CC(C)N1CC2=NNC(=O)c3cccc4[nH]c(c2c34)C1 [Compound 45, 2-Isopropyl-2,3,4,9-tetrahydro-2,4,9,10-tetraazacyclohepta[def]fluoren-8(1H)-one] | 0.0038 µM | 
20 | CN(C)CCN1CC2=NNC(=O)c3cccc4[nH]c(c2c34)C1 [Compound 60, 2-(2-(dimethylamino)ethyl)-2,3,4,9-tetrahydro-2,4,9,10-tetraazacyclohepta[def]fluoren-8(1H)-one] | 0.0685 µM | 
21 | CN(C)c1ccc(C2CC3=NNC(=O)c4cc(F)cc5[nH]c(c3c45)C2)cc1 (stereo not drawn) [Compound 12, 2-(4-(dimethylamino)phe-nyl)-8-fluoro-2,3,5,10-tetrahydro-[1,2]diazepino[3,4,5,6-def]carbazol-6(1H)-one] |  | 0.0266 µM
22 | CN(C)CCn1c2c3c4c(cccc41)C(=O)NN=C3CN(C(=O)C1CC1)C2 [Compound 48, 2-(cyclopropanecarbonyl)-4-(2-(dimethylamino)ethyl)-2,3,4,9-tetrahydro-2,4,9,10-tetraazacyclohepta[def]fluoren-8(1H)-one] | 0.006 µM | 
23 | CC(C)(C)CCN1CC2=NNC(=O)c3cccc4[nH]c(c2c34)C1 [Compound 54, 2-(3,3-dimethylbutyl)-2,3,4,9-tetrahydro-2,4,9,10-tetraazayclohepta[def]fluoren-8(1H)-one] | 0.023 µM | 
24 | CC1(C)CC2=NNC(=O)c3cc(F)cc4[nH]c(c2c34)C1=O [Compound 26, 8-Fluoro-2,2-dimethyl-2,3-dihydro-[1,2]diazepino[3,4,5,6-def]carbazole-1,6(5H,10H)-dione] | 0.0045 µM | 
25 | O=C1NN=C2CN(C(=O)C3CC3)Cc3[nH]c4cccc1c4c32 [Compound 47, 2-(cyclopropanecarbonyl)-2,3,4,9-tetrahydro-2,4,9,10-tetraazacyclohepta[def]fluoren-8(1H)-one] | 0.0069 µM | 
26 | CC(C)(C)C(=O)N1CC2=NNC(=O)c3cc(F)cc4[nH]c(c2c34)C1 [Compound 52, 6-Fluoro-2-pivaloyl-2,3,4,9-tetrahydro-2,4,9,10-tetraazacyclohepta[def]fluoren-8(1H)-one] | 0.0135 µM | 
27 | CCCCN1CC2=NNC(=O)c3cc(F)cc4[nH]c(c2c34)C1 [Compound 59, 2-Butyl-6-fluoro-2,3,4,9-tetrahydro-2,4,9,10-tetraazacyclohepta[def]fluoren-8(1H)-one] | 0.002 µM | 
